We go through 20 compounds from PubChem BioAssay (NCI).

Values joined by “and” are separate entries in the source; they are usually repeats but may differ in a detail not shown here. Equal entries are not always repeated.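 The compound was tested at five concentrations on cells cultured in 96-well plates, with a 48-hour exposure period. GI50 marks 50% less growth. At the TGI there is no net growth.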

Some test systems named below: KM12 colon; CCRF-CEM leukemia; UO-31 renal; OVCAR-4 ovarian; NCI-H522 lung; IGROV1 ovarian; PC-3 prostate; OVCAR-5 ovarian; SW-620 colon; HT29 colon.
What all share (experiment): inhibition of tumour cell growth, NCI panel, 48 h

Take `COC(=O)CCNc1c2ccccc2nc2cccc([N+](=O)[O-])c12`: the TGI in the assay with KM12 colon is 0.00451 µM; in the assay on CCRF-CEM leukemia, 0.18 µM and 0.0689 µM; in the assay with UO-31 renal, 0.00492 µM and 0.0113 µM; in the assay on OVCAR-4 ovarian, 0.0251 µM; in the assay on NCI-H522 lung, 0.00493 µM; with IGROV1 ovarian, 0.0261 µM and 0.0901 µM. For the same compound, the TGI was 0.126 µM in the assay with PC-3 prostate; 0.108 µM and 0.0278 µM in the assay on OVCAR-5 ovarian. For the same compound, the GI50 with CCRF-CEM leukemia is 0.00682 µM and 0.0157 µM; with UO-31 renal it was 0.00139 µM; in the assay on OVCAR-4 ovarian, 0.00454 µM; in the assay with NCI-H522 lung, 0.0016 µM.
Regarding `CCOC(=O)/C=C(\C(=O)OCC)n1cc(Cl)c(=O)n(CC(=O)OCC)c1=O`, the TGI with KM12 colon turned out to be 34.9 µM; with CCRF-CEM leukemia it was 36.1 µM; with UO-31 renal, 3.27 µM; in the assay on OVCAR-4 ovarian, 41.2 µM; with SW-620 colon, 4.54 µM; in the assay on NCI-H522 lung, 1.85 µM. Further, the TGI with IGROV1 ovarian is 25.9 µM; with PC-3 prostate it was 27.8 µM; in the assay with HT29 colon, 38.3 µM; with OVCAR-5 ovarian, 33.3 µM. In addition, the GI50 in the assay on CCRF-CEM leukemia is 16.5 µM.
`COC(=O)[C@]1(c2ccc(N(C)C)cc2OC)C[C@@H]2CCCN(CCc3c1[nH]c1ccccc31)C2`: the TGI in the assay with KM12 colon is more than 55.9 µM; in the assay on CCRF-CEM leukemia, more than 84.3 µM; in the assay on UO-31 renal it was 33.2 µM; in the assay with OVCAR-4 ovarian, 28.2 µM; in the assay with SW-620 colon, more than 100 µM; with NCI-H522 lung, 21.8 µM. Also, the results for the TGI in the assay on IGROV1 ovarian, with HT29 colon and with OVCAR-5 ovarian were 48 µM, 32.8 µM and more than 100 µM, respectively.
With `COC(=O)[C@]1(c2cc3ccccc3[nH]2)CC2CN(C(=O)OCc3ccccc3)C1CC2=O` (some centres undefined), the TGI is more than 100 µM in the assay on KM12 colon; more than 100 µM in the assay on CCRF-CEM leukemia; more than 100 µM in the assay on UO-31 renal; more than 100 µM with OVCAR-4 ovarian; more than 100 µM with SW-620 colon; 66.8 µM in the assay on NCI-H522 lung. Also, the TGI in the assay with IGROV1 ovarian was more than 100 µM; with PC-3 prostate, 39 µM; with HT29 colon, 31.7 µM; with OVCAR-5 ovarian, 27.9 µM.
Take `CNC(=O)SCC(NC(=O)CCC(N)C(=O)O)C(=O)NCC(=O)O` (centres undefined): the TGI with KM12 colon, in the assay on CCRF-CEM leukemia, in the assay with UO-31 renal, in the assay on OVCAR-4 ovarian, with SW-620 colon and in the assay on NCI-H522 lung was more than 100 µM each time. Moreover, the TGI in the assay on IGROV1 ovarian, in the assay with HT29 colon and in the assay with OVCAR-5 ovarian was more than 100 µM in each case.
As to `CN1CCc2c(sc3ncn(Nc4ccc(Cl)cc4)c(=N)c23)C1`, the TGI with KM12 colon, in the assay with CCRF-CEM leukemia, in the assay on OVCAR-4 ovarian, with SW-620 colon, in the assay on NCI-H522 lung and in the assay with IGROV1 ovarian was more than 100 µM throughout. The TGI in the assay with PC-3 prostate, in the assay with HT29 colon and in the assay on OVCAR-5 ovarian was more than 100 µM throughout.
As for `CCCCCCCCP(=O)(O)OP(=O)(O)OCC1OC(n2ccc(N)nc2=O)C(O)C1O` (centres undefined), the TGI in the assay with KM12 colon, in the assay on CCRF-CEM leukemia, with UO-31 renal, with OVCAR-4 ovarian, in the assay with SW-620 colon and with NCI-H522 lung was more than 100 µM in each case. Also, the TGI in the assay with IGROV1 ovarian, with PC-3 prostate, in the assay on HT29 colon and with OVCAR-5 ovarian was more than 100 µM each time.
Take `Cc1nc2c(cc1OCc1ccccc1)C(=O)C1=C(C2=O)C2OC(=O)CC2OC1(C)C` (centres undefined): the TGI with KM12 colon amounted to 2 µM; in the assay with CCRF-CEM leukemia, 0.451 µM; with UO-31 renal it was 3.24 µM; in the assay with OVCAR-4 ovarian, 1.94 µM; with NCI-H522 lung, 0.387 µM; with IGROV1 ovarian it was 1.31 µM. Moreover, the values for the TGI with PC-3 prostate, in the assay with HT29 colon and in the assay on OVCAR-5 ovarian were 1.8 µM, 1.41 µM and 2.16 µM, respectively.
In the case of `C=CC(C)C1(CCCOCc2ccccc2)C(=S)N2CCC3(CC24CCCC14)OCCO3` (centres undefined), the TGI is more than 100 µM in the assay with KM12 colon; more than 100 µM in the assay with CCRF-CEM leukemia; more than 100 µM in the assay with UO-31 renal; more than 100 µM with OVCAR-4 ovarian; more than 100 µM in the assay with SW-620 colon; 64.4 µM with NCI-H522 lung. For the same compound, the TGI in the assay with IGROV1 ovarian, in the assay with HT29 colon and with OVCAR-5 ovarian was more than 100 µM in each case.
Regarding `Cc1cc(S(=O)(=O)Nc2nncn2-c2ccc(Cl)cc2)c(S)cc1Cl`, the TGI with KM12 colon, in the assay with CCRF-CEM leukemia, in the assay on OVCAR-4 ovarian, in the assay on SW-620 colon, in the assay with NCI-H522 lung and in the assay on IGROV1 ovarian was more than 10 µM throughout. In addition, the TGI in the assay on PC-3 prostate, in the assay on HT29 colon and with OVCAR-5 ovarian was more than 10 µM throughout.
Regarding `COC(=O)c1c(C)cccc1C1CN=NC12Cc1cc(C)cc(C)c1C2=O` (centres undefined), the TGI with KM12 colon is more than 100 µM; in the assay with CCRF-CEM leukemia, 63.8 µM; in the assay on UO-31 renal, more than 100 µM; in the assay with OVCAR-4 ovarian, more than 100 µM; in the assay on SW-620 colon, more than 100 µM; with NCI-H522 lung it was 41.2 µM. Moreover, the TGI with IGROV1 ovarian, in the assay on PC-3 prostate, in the assay with HT29 colon and with OVCAR-5 ovarian was more than 100 µM throughout.
As for `COc1cc2c(cc1Oc1c(Oc3c(O)c(OC)cc4c3C(CC(C)C)N(C)CC4)c(OC)cc3c1C(CC(C)C)N(C)CC3)C(CC(C)C)N(C)CC2` (centres undefined), the TGI was 3.78 µM with KM12 colon; 6.3 µM in the assay on CCRF-CEM leukemia; 11.9 µM with UO-31 renal; 8.15 µM with OVCAR-4 ovarian; 8.28 µM in the assay with SW-620 colon; 3.58 µM in the assay with NCI-H522 lung. The TGI was 15.1 µM with IGROV1 ovarian, 5.61 µM in the assay with HT29 colon and 17.7 µM in the assay on OVCAR-5 ovarian.
Turning to `O=C(c1cccs1)N1CCCN(C(=O)c2cccs2)C1=S`, the TGI in the assay with KM12 colon, in the assay on CCRF-CEM leukemia, in the assay on UO-31 renal, in the assay with SW-620 colon, in the assay with IGROV1 ovarian and with PC-3 prostate was more than 100 µM each time. The TGI in the assay on HT29 colon and in the assay on OVCAR-5 ovarian was more than 100 µM in each case.
On to `COc1cc2cc(C(=O)N3CC(CCl)c4ccc(N(C)C)cc43)[nH]c2c(OC)c1OC` (centres undefined), for which the TGI in the assay on KM12 colon amounted to 0.543 µM; in the assay on CCRF-CEM leukemia, 0.633 µM; in the assay on UO-31 renal, 0.143 µM; in the assay on OVCAR-4 ovarian, 0.729 µM; with SW-620 colon it was 0.773 µM; with NCI-H522 lung, 0.0349 µM. Besides, the TGI is 0.979 µM with PC-3 prostate and 0.259 µM in the assay on OVCAR-5 ovarian.
In the case of `Cc1cc(Nc2ccc(NS(C)(=O)=O)cc2)c2c(ccc3nccc32)[nH]1`, the TGI with KM12 colon is 36.2 µM; with CCRF-CEM leukemia, more than 100 µM; with UO-31 renal, more than 100 µM; with OVCAR-4 ovarian it was 30.6 µM; in the assay with SW-620 colon, more than 100 µM; in the assay with NCI-H522 lung, 23.4 µM. The TGI in the assay with IGROV1 ovarian is 86.3 µM; in the assay with PC-3 prostate, 39.7 µM; in the assay with HT29 colon, 89.3 µM; with OVCAR-5 ovarian it was 75.1 µM.
For the compound `CCCCCCCCCCCCCC[n+]1ccc(C(N)=O)cc1`, the GI50 in the assay on CCRF-CEM leukemia was 2.52 µM; in the assay on UO-31 renal, 7.65 µM; in the assay on OVCAR-4 ovarian, 3.26 µM; in the assay on SW-620 colon, 2.31 µM; with NCI-H522 lung it was 1.61 µM; in the assay on IGROV1 ovarian, 1.05 µM. Further, the GI50 was 0.703 µM with PC-3 prostate, 1.11 µM in the assay on HT29 colon and 1.2 µM with OVCAR-5 ovarian. Moreover, the TGI was more than 100 µM with CCRF-CEM leukemia; 24.3 µM with UO-31 renal; 18.2 µM with OVCAR-4 ovarian; 11.2 µM in the assay with SW-620 colon; 4.68 µM in the assay with NCI-H522 lung; 2.91 µM in the assay with IGROV1 ovarian. Also, the TGI came out at 2.88 µM in the assay with PC-3 prostate, 4.13 µM with HT29 colon and 4.12 µM with OVCAR-5 ovarian.
Take `COC1=CC(=O)C=C(OC)C1=O`: the TGI in the assay on KM12 colon amounted to 39.3 µM; with CCRF-CEM leukemia, 4.88 µM; in the assay on UO-31 renal, 54.1 µM; with OVCAR-4 ovarian it was 16.8 µM; in the assay with SW-620 colon, 13.5 µM; in the assay with NCI-H522 lung, 34.4 µM. Besides, the TGI was 31.3 µM in the assay on IGROV1 ovarian, 65.3 µM in the assay with HT29 colon and 52.2 µM with OVCAR-5 ovarian.
Take `N#Cc1cc(Sc2ccc(N)c(C#N)c2)ccc1N`: the TGI in the assay on KM12 colon was 24.9 µM; in the assay with CCRF-CEM leukemia, 41.3 µM; in the assay with UO-31 renal, more than 100 µM; in the assay with OVCAR-4 ovarian it was 98.8 µM; in the assay with SW-620 colon, more than 100 µM; in the assay with IGROV1 ovarian, more than 100 µM. Moreover, the TGI with PC-3 prostate was more than 100 µM; in the assay with HT29 colon, 30.9 µM; in the assay on OVCAR-5 ovarian it was more than 100 µM.
Turning to `O=C(Nc1ccccc1Cl)c1ccc([N+](=O)[O-])cc1`, the TGI with KM12 colon, in the assay with CCRF-CEM leukemia, in the assay on UO-31 renal, in the assay with SW-620 colon, in the assay with NCI-H522 lung and in the assay with IGROV1 ovarian was more than 100 µM throughout. The compound also came in with a TGI in the assay with HT29 colon of more than 100 µM.
Take `C/C=C(\C)C(=O)O[C@@H]1CC(C)(C)CC2C3=CCC4[C@]56CC[C@](O)(OC5)C(C)(C)C6CC[C@@]4(C)C3(C)CC[C@]21C(=O)O` (some centres undefined): the TGI in the assay with KM12 colon, with CCRF-CEM leukemia, in the assay with OVCAR-4 ovarian, in the assay with SW-620 colon, with NCI-H522 lung and in the assay on IGROV1 ovarian was more than 100 µM throughout. For the same compound, the TGI in the assay on PC-3 prostate, with HT29 colon and in the assay with OVCAR-5 ovarian was more than 100 µM in each case.
